Source: PubChem BioAssay (NCI)
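Cultured in 96-well plates, cells were exposed to test compound for 48 hours across five concentrations. GI50 = concentration required for 50% inhibition of growth. At the TGI there is no net growth.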

What was measured:
Assay in all cases: DTP human tumour cell line panel, 48 h
[1] = system: M14 melanoma
[2] = system: OVCAR-8 ovarian
[3] = system: UACC-257 melanoma
[4] = system: HL-60(TB) leukemia
[5] = system: SK-OV-3 ovarian
[6] = system: UACC-62 melanoma
[7] = system: HT29 colon
[8] = system: SK-MEL-2 melanoma
[9] = system: CAKI-1 renal
[10] = system: MCF7 breast

## O=C(NN1C(=O)C(Cl)C1c1ccc([N+](=O)[O-])cc1)c1ccccc1O (stereo not given)
[1]
  TGI: > 100 µM
[2]
  TGI: > 100 µM
[3]
  TGI: > 100 µM
[4]
  TGI: > 100 µM
[5]
  TGI: > 100 µM
[6]
  TGI: > 100 µM
[7]
  TGI: > 100 µM
[8]
  TGI: > 100 µM

## CC(=O)O[C@H]1CC[C@H]2[C@@H]3CC[C@H]4Nc5c(cnn5S(C)(=O)=O)C[C@]4(C)[C@H]3CC[C@]12C
[9]
  TGI: > 100 µM
[1]
  TGI: > 100 µM
[2]
  TGI: > 100 µM
[10]
  TGI: 82.4 µM
[4]
  TGI: > 100 µM
[5]
  TGI: > 100 µM
[6]
  TGI: > 100 µM
[7]
  TGI: > 100 µM
[8]
  TGI: > 100 µM

## N/C(=N\N=C/c1cc(Cl)cc(Cl)c1O)NO
[9]
  TGI: 10.1 µM
[2]
  TGI: 19 µM
[10]
  TGI: 10.3 µM
[3]
  TGI: 29.3 µM
[4]
  TGI: 0.694 µM
[5]
  TGI: 24.2 µM
[6]
  TGI: 6.73 µM
[7]
  TGI: > 62.7 µM
[8]
  TGI: 23.1 µM

## CCOC(=O)C1CCn2c(nc3c(=O)n(C)c(=O)n(C)c32)S1 (stereo not given)
[9]
  TGI: > 100 µM
[1]
  TGI: > 100 µM
[2]
  TGI: > 100 µM
[3]
  TGI: > 100 µM
[4]
  TGI: > 100 µM
[5]
  TGI: > 100 µM
[6]
  TGI: > 100 µM
[7]
  TGI: > 100 µM
[8]
  TGI: > 100 µM

## Cn1nc2ccc3nccc(NCCNCCCl)c3c2n1
[1]
  TGI: > 100 µM
[2]
  TGI: > 100 µM
[4]
  TGI: > 100 µM
[5]
  TGI: > 100 µM
[6]
  TGI: > 100 µM
[7]
  TGI: > 100 µM
[8]
  TGI: > 100 µM

## CCNC(=O)CCCCC(=O)c1c(C)[nH]c(/C=C2\N=C(c3ccc[nH]3)C=C2OC)c1C
[9]
  GI50: 2.09 µM
  TGI: 5 µM
[1]
  GI50: 2.68 µM
  TGI: 7.13 µM
[2]
  GI50: 2.96 µM
  TGI: 7.73 µM
[10]
  GI50: 1.84 µM
  TGI: 4.51 µM
[3]
  GI50: 6.41 µM
  TGI: 26.1 µM
[4]
  GI50: 2.06 µM
  TGI: 5.41 µM
[5]
  GI50: 2.59 µM
  TGI: 5.76 µM
[6]
  GI50: 6.11 µM
  TGI: 19.3 µM
[7]
  GI50: 2.34 µM
  TGI: 7.68 µM
[8]
  GI50: 3.14 µM
  TGI: 7.44 µM

## COC(=O)C[C@](O)(CCC(C)(C)O)C(=O)O[C@@H]1C(OC)=C[C@]23CCCN2CCc2cc4c(cc2[C@H]13)OCO4
[9]
  TGI: 1.64 µM
[2]
  TGI: 0.571 µM
[10]
  TGI: 0.113 µM
[3]
  TGI: 0.537 µM
[4]
  TGI: 0.743 µM
[5]
  TGI: 0.915 µM
[6]
  TGI: 1.12 µM
[7]
  TGI: 1.06 µM
[8]
  TGI: 0.407 µM

## CN(C)S(=O)(=O)c1cccc(-c2nc3sc4c(c3c(=O)[nH]2)CCCC4)c1
[9]
  GI50: > 100 µM
  TGI: > 100 µM
[1]
  GI50: > 100 µM
  TGI: > 100 µM
[2]
  GI50: 1.52 µM
  TGI: > 100 µM
[10]
  GI50: > 100 µM
  TGI: > 100 µM
[3]
  GI50: > 100 µM
  TGI: > 100 µM
[6]
  GI50: > 100 µM
  TGI: > 100 µM

## O=C(/C=C/c1ccsc1)c1ccc(Cl)s1
[9]
  TGI: > 100 µM
[1]
  TGI: > 100 µM
[2]
  TGI: > 100 µM
[10]
  TGI: > 100 µM
[3]
  TGI: > 100 µM
[4]
  TGI: 57.2 µM
[5]
  TGI: > 100 µM
[6]
  TGI: > 100 µM
[7]
  TGI: > 100 µM
[8]
  TGI: > 100 µM

## CC1=NN(C(=O)c2ccccc2)C(=O)C1N=Nc1ccccc1C(=O)O (stereo not given)
[9]
  TGI: > 100 µM
[2]
  TGI: > 100 µM
[10]
  TGI: 19 µM
[4]
  TGI: > 33.2 µM
[5]
  TGI: > 100 µM
[6]
  TGI: 22.9 µM
[7]
  TGI: > 100 µM
[8]
  TGI: > 100 µM

## CCOC(=O)CCc1c(C)c2c(O)cc(O)cc2oc1=O
[9]
  TGI: > 100 µM
[2]
  TGI: > 100 µM
[10]
  TGI: > 100 µM
[3]
  TGI: > 100 µM
[4]
  TGI: > 100 µM
[5]
  TGI: > 100 µM
[6]
  TGI: > 100 µM
[7]
  TGI: > 100 µM
[8]
  TGI: > 100 µM
